Test results published in patent publication US9260731B2 (RELIANCE INDUSTRIES LIMITED, priority 2012, dated 2016).
Where two headings read alike, the source gives them in different places.

Legend:
[1] = system: wild type C. acetobutylicum; assay: Rhodamine 6G accumulation on AT agar, wild type; assay type: cell-based, Clostridium acetobutylicum; conditions: 100 μg/ml in AT agar, 24 h, 37° C., anaerobic
Experimental: (§1) Cells of overnight culture of wild type and solvent-tolerant mutant C. acetobutylicum MTCC 5587 were spotted on AT agar with or without rhodamine 6G (100 μg/ml) and incubated at 37° C. in anaerobic chamber for 24 h. Accumulation of rhodamine 6G was monitored under UV light (Lazaroaie, 2009).

[2] = system: solvent-tolerant mutant C. acetobutylicum MTCC 5587; assay: Rhodamine 6G accumulation on AT agar, solvent-tolerant mutant; assay type: cell-based, Clostridium acetobutylicum; conditions: 100 μg/ml in AT agar, 24 h, 37° C., anaerobic
Experimental: as §1

[3] = system: C. acetobutylicum ATCC 4259 (wild type strain)
From the text: (§2) The tolerance and growth profile of the mutant was monitored with respect to time.

[4] = system: C. acetobutylicum MTCC 5587 (mutant strain B90)
Experimental: Chemical mutagenesis was carried out using MNNG (1-methyl-3-nitro-1-nitrosoguanidine). Alternate thioglycolate (AT) media was inoculated with C. acetobutylicum ATCC 4259 from the stab culture. After 12 h growth at 37° C., the culture was harvested and centrifuged. The cell pellet was washed with 2 ml citrate buffer (pH 5.8) and 100 μl of MNNG (stock solution 100 mg/ml prepared in sterilized distilled water) was added to the cells, incubated at 30° C. for 70 min. The mutagenised cell mass was centrifuged and the supernatant discarded appropriately in biohazard containers. The cells were washed twice with AT broth and resuspended in 1 ml AT broth.
as §2

Compound: CCN=c1cc2oc3cc(NCC)c(C)cc3c(-c3ccccc3C(=O)OCC)c-2cc1C.Cl [rhodamine 6G]
- accumulation of rhodamine 6G (colony colour under UV light) [1]: comparatively lower dye accumulation
- accumulation of rhodamine 6G intracellularly (colony colour under UV light) [2]: high accumulation

Compound: n-butanol
- butanol tolerated in the medium, beyond which there was cessation of growth [3]: up to 1.5%
- growth in presence of butanol ([4]; 3.8% butanol): no growth
- growth in presence of butanol ([4]; 4% butanol): no growth
- growth in presence of butanol ([4]; at the highest tolerated levels of butanol (up to […] v/v)): extremely slow and feeble
- butanol tolerated in the AT medium ([4]; mutant strain, AT medium): up to 3.5 % (v/v)
